Test results reported in PubChem BioAssay AID1963441 (Molecular Pharmacology Branch, DTP, NCI, 2024).

Tested on: NCI-H1876 complex spheroid growth, % test/control
Assay: Anticancer human tumor NCI-H1876 cell line growth inhibition [Asc];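 further: compound exposure lasted 7 days starting three days after seeding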;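 on viability, T/C: 100% = DMSO vehicle control wells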
Conditions: for viability, T/C: stronger effect = lower value; active means viability on the fitted dose curve at most 10% of control; inactive means the rest
Procedure, shortened: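 Concentration series start at each agent's clinical Cmax, or at 10 microM when none is established, and drop in half-log steps; agents are applied alone or together to complex spheroids built with HUVEC and hMSC.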

Cc1nc(N2CCC3(CC2)COC(C)C3N)c(CO)nc1Sc1ccnc(N)c1Cl (centres undefined) + CNC(C)C(=O)NC1CN(S(=O)(=O)c2cccc(S(=O)(=O)N3CCC4CCC(C(=O)NC(c5ccccc5)c5ccccc5)N4C(=O)C(NC(=O)C(C)NC)C3)c2)CCC2CCC(C(=O)NC(c3ccccc3)c3ccccc3)N2C1=O
inactive: viability, T/C (second compound 0.00316 µM, first compound 0.00949 µM) 100% | viability, T/C (second compound 0.00316 µM, first compound 0.03 µM) 92.7% | viability, T/C (second compound 0.00316 µM, first compound 0.0949 µM) 91.2% | viability, T/C (second compound 0.00316 µM, first compound 0.3 µM) 80.7% | viability, T/C (second compound 0.00316 µM, first compound 0.949 µM) 92.6% | viability, T/C (second compound 0.00316 µM, first compound 3 µM) 79.8% | viability, T/C (second compound 0.01 µM, first compound 0.00949 µM) 91.7% | viability, T/C (second compound 0.01 µM, first compound 0.03 µM) 91.9% | viability, T/C (second compound 0.01 µM, first compound 0.0949 µM) 92.7% | viability, T/C (second compound 0.01 µM, first compound 0.3 µM) 81.2% | viability, T/C (second compound 0.01 µM, first compound 0.949 µM) 85.7% | viability, T/C (second compound 0.01 µM, first compound 3 µM) 92.1% | viability, T/C (second compound 0.0316 µM, first compound 0.00949 µM) 94.4% | viability, T/C (second compound 0.0316 µM, first compound 0.03 µM) 86.1% | viability, T/C (second compound 0.0316 µM, first compound 0.0949 µM) 98.8% | viability, T/C (second compound 0.0316 µM, first compound 0.3 µM) 84.8% | viability, T/C (second compound 0.0316 µM, first compound 0.949 µM) 87.6% | viability, T/C (second compound 0.0316 µM, first compound 3 µM) 89% | viability, T/C (second compound 0.1 µM, first compound 0.00949 µM) 93.9% | viability, T/C (second compound 0.1 µM, first compound 0.03 µM) 88.4% | viability, T/C (second compound 0.1 µM, first compound 0.0949 µM) 82.9% | viability, T/C (second compound 0.1 µM, first compound 0.3 µM) 86.5% | viability, T/C (second compound 0.1 µM, first compound 0.949 µM) 86.4% | viability, T/C (second compound 0.1 µM, first compound 3 µM) 84.3% | viability, T/C (second compound 0.316 µM, first compound 0.00949 µM) 94% | viability, T/C (second compound 0.316 µM, first compound 0.03 µM) 93.8% | viability, T/C (second compound 0.316 µM, first compound 0.0949 µM) 87.9% | viability, T/C (second compound 0.316 µM, first compound 0.3 µM) 92.7% | viability, T/C (second compound 0.316 µM, first compound 0.949 µM) 85.9% | viability, T/C (second compound 0.316 µM, first compound 3 µM) 77.2% | viability, T/C (second compound 1 µM, first compound 0.00949 µM) 94% | viability, T/C (second compound 1 µM, first compound 0.03 µM) 91.8% | viability, T/C (second compound 1 µM, first compound 0.0949 µM) 94.4% | viability, T/C (second compound 1 µM, first compound 0.3 µM) 90.5% | viability, T/C (second compound 1 µM, first compound 0.949 µM) 84.5% | viability, T/C (second compound 1 µM, first compound 3 µM) 74.8%
> 3 µM: IC50 (curve of first compound, second compound 0.00316 µM) | IC50 (curve of first compound, second compound 0.01 µM) | IC50 (curve of first compound, second compound 0.0316 µM) | IC50 (curve of first compound, second compound 0.1 µM) | IC50 (curve of first compound, second compound 0.316 µM) | IC50 (curve of first compound, second compound 1 µM)

Cc1c(S(C)(=O)=O)c(-c2cc(F)cc(N3CCN(c4ccc(NS(=O)(=O)c5ccc(NC(CCN6CCC(C(=O)OCCCP(=O)(O)O)CC6)CSc6ccccc6)c(S(=O)(=O)C(F)(F)F)c5)cc4)CC3)c2)c(-c2ccc(Cl)cc2)n1C(C)C (centres undefined)
> 10 µM: IC50 (compound alone, run of 11/07/2022)
inactive: viability, T/C (compound 0.0316 µM) 109% [middle of 7 runs] | viability, T/C (compound 0.1 µM) 101% [middle of 7 runs] | viability, T/C (compound 0.316 µM) 96.3% [middle of 7 runs] | viability, T/C (compound 1 µM) 90.5% [middle of 7 runs] | viability, T/C (compound 3.16 µM) 95.5% [middle of 7 runs] | viability, T/C (compound 10 µM) 102% [middle of 7 runs]
